Laboratory results as given in PubChem BioAssay (NCI).
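Interpolation was linear, between the two tested concentrations surrounding the appropriate level; five concentrations were tested over 48 hours in 96-well plates. The concentration for full growth arrest is given as TGI.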

Tests used:
Assay in all cases: DTP human tumour cell line panel, 48 h
[1] = system: ACHN renal
[2] = system: HOP-92 NSCLC
[3] = system: KM12 colon
[4] = system: M14 melanoma
[5] = system: MALME-3M melanoma
[6] = system: MOLT-4 leukemia
[7] = system: NCI-H226 lung
[8] = system: RPMI-8226 leukemia
[9] = system: SF-268 CNS
[10] = system: MCF7 breast

| SMILES | TGI [1] [µM] | TGI [2] [µM] | TGI [3] [µM] | TGI [4] [µM] | TGI [5] [µM] | TGI [6] [µM] | TGI [7] [µM] | TGI [8] [µM] | TGI [9] [µM] | TGI [10] [µM] |
| --- | --- | --- | --- | --- | --- | --- | --- | --- | --- | --- |
| CC(c1ccccc1)N1CCN(C(C)c2ccccc2)CC1 (stereo not given) | > 100 | > 100 | > 100 | 53 | > 100 | > 100 | > 100 | > 100 | > 100 |  |
| CC1(C)OC[C@@H](O)[C@H](C#N)CO1 | > 100 |  | > 100 | > 100 | > 100 | > 100 | > 100 | > 100 | > 100 | > 100 |
| O=C1OCC/C1=N/O | > 100 | > 100 | > 100 | > 100 | > 100 | > 100 | > 100 | > 100 | > 100 |  |
| Clc1ccc(-c2nnc3sc4nc5ccccc5c-4nn23)c(Cl)c1 | > 100 | 68.8 | > 100 | > 100 | > 100 | > 100 | > 100 |  | > 100 | > 100 |
| C=CCn1c(=O)c(C(=O)Nc2nc(C34CC5CC(CC(C5)C3)C4)cs2)c(O)c2ccccc21 | > 100 | 84.4 | > 100 |  | > 100 | > 100 | > 100 | 87.5 |  | > 100 |
| Cc1ccc(C2=CC(=O)OC(C[P+](c3ccccc3)(c3ccccc3)c3ccccc3)(c3ccccc3)O2)cc1 (stereo not given) | 39.8 |  | 34.3 | 32 | 30.5 | 67 | 60.4 | 46.1 | 38.2 | 56.6 |
| NS(=O)(=O)c1ccc(NC(=S)/N=C/C2=C(O)c3ccccc3C2=O)cc1 | > 100 | > 100 | > 100 | > 100 | > 100 | > 100 |  | > 100 | > 100 | > 100 |
| COc1cc(O)c2c(c1)C(=O)c1cc3c(c(O)c1C2=O)C(OC1OC(C)C(OC)C(O)C1OC)C(OC)C(C)(O)C3=O (stereo not given) | 12.8 |  | 15.9 | 9.61 | 5.85 | 12.2 | 9.54 | 4.6 | 36.3 | 17.1 |
| CC(O)CNC(=O)C(C)Oc1ccc(OCC2CCCCC2)cc1 (stereo not given) | > 100 |  | > 100 | > 100 | > 100 | > 100 | > 100 |  | > 100 |  |
| Cn1c(SCc2ccc(F)cc2)nnc1C12CC3CC(CC(C3)C1)C2 | > 100 | 77.1 |  | 71.8 | 60.8 | 57.1 | > 100 | 82.5 | > 100 |  |
| Cc1c(O)nc(-n2[nH]c3c(c2=O)CCCC3)[nH]c1=O | > 100 | > 100 | > 100 | > 100 | > 100 | > 100 | > 100 | > 100 | > 100 |  |
| O=c1[nH][nH]c(=O)n1CCCCCCn1c(=O)[nH][nH]c1=O |  |  | > 100 | > 100 | > 100 | > 100 | > 100 | > 100 | > 100 | > 100 |
| CCN1CN(c2ccccc2)C2(CCN(CC3COc4ccccc4O3)CC2)C1=O (stereo not given) | 71.2 |  | 36.5 | 4.99 | 36 | 57.6 | 94.1 | 57.9 | > 100 | 77.6 |
| O=P(O)(O)C(N=C(Nc1ccccc1)Nc1ccccc1)P(=O)(O)O | > 100 |  | > 100 | > 100 | > 100 |  | > 100 |  | > 100 | > 100 |
| C=C1CC(C#N)(C#N)[C@H]2C3CCCC3C[C@@H]12 (stereo not given in full) (tested in a mixture with another compound) | 61.1 | 35 | 43.3 | 29.2 |  | 43.5 | 61.9 |  | 61.1 | 29.8 |
| OC[C@H]1O[C@@H]2O[C@@](COCc3ccccc3)([C@H](OCc3ccccc3)[C@H]2O)[C@@H]1OCc1ccccc1 | 31.1 | 28.1 | 32.1 | 32.9 |  | 21.9 |  | 32.4 | 32.3 | 38.8 |
| COc1cc(OC)c2c(=O)cc(-c3ccc(OC)c(OC)c3OC)oc2c1 | > 100 | > 100 | > 100 | > 100 | > 100 |  | > 100 | > 100 | > 100 |  |
| O=C1NC(N2CCOCC2)=N/C1=C\c1ccco1 | > 100 | > 100 | > 100 | > 100 |  | > 100 | > 100 | > 100 | > 100 | > 100 |
| COc1ccc(CCN(C)C2CCC(C#N)(c3ccc(OC)c(OC)c3)CC2)cc1OC (stereo not given) | > 100 | > 100 | > 100 | > 100 | > 100 | > 100 | > 100 | > 100 | > 100 |  |
| CC1=Cc2cccc(C)c2C(=O)C1=O |  | 2.92 | 19.7 | 9.54 | 3.26 |  | 30.5 | 4.36 | 25.9 |  |
| Cc1ccc(/C=N\NC2c3cc(Cl)ccc3Nc3nc(=O)[nH]c(C)c32)cc1 (stereo not given) | > 100 | > 100 | > 100 | > 100 | > 100 | > 100 | > 100 | > 100 | > 100 |  |
| COC(=O)/C(=C/c1ccc(OC)cc1)C(C(=O)O)=C1CCCC1 | > 100 | > 100 | > 100 | > 100 |  | > 100 | > 100 | > 100 |  |  |
| S=c1c2cn[nH]c2nc2scc(-c3ccc(Cl)cc3)n12 | 27 |  | 28.8 | 36.3 | 49.6 | 60.1 |  | 64.9 | 42.5 | 36.3 |
| COc1ccc(-c2nc(SCC(=O)NNC(=S)Nc3ccccc3)[nH]c2-c2ccc(OC)cc2)cc1 | 64.2 | 44.9 | 85.9 | 34.6 | > 100 | 25.3 |  |  | 59.8 | 47.5 |
